According to patent US20240277715A1, “COMBINATION THERAPIES COMPRISING A METTL3 INHIBITOR AND A FURTHER ANTICANCER AGENT” (Storm Therapeutics Limited, priority 2021, published 2024):

What was measured:
[1] = test system: A20 mouse B cell lymphoma; experiment: Subcutaneous A20 lymphoma syngeneic model, anti-tumour efficacy; assay type: in vivo
Source text: (§1) The in vivo effect of METTL3 inhibition in combination with anti-PD1 immune checkpoint inhibitor was investigated using syngeneic mouse tumour models in immune-competent hosts. Mouse tumour models can be grown in appropriate host strains and are widely used to investigate the effects of therapeutic agents on the immune system and cancer growth. There are a limited range of mouse syngeneic tumour models available, far fewer than human cell lines, and they are widely used in the art to support potential clinical utility of immune stimulatory approaches across multiple indications. We exemplify the potential role of STM3480 and combinations with immune checkpoint inhibitors such as anti-PD-1 antibodies in multiple tumour models including A20 (murine B cell lymphoma), EMT-6 (murine breast cancer) and CT-26 (murine colorectal cancer).
The objective of this study is to assess the anti-tumour efficacy of STM3480 in combination with anti-PD1 in subcutaneous A20 mouse B cell lymphoma cancer model in female BALB/c mice.
A20 (#ATCC TIB-208) mouse B cell lymphoma cells were cultured in (RPMI-1640+10% non H.I. FBS+0.05 mM 2-mercaptoethanol) media. 5×10^5 viable cells in 0.1 ml PBS were injected subcutaneously into the left flank of 7-9 week old female BALB/cN (BALB/cAnNCrl) Crl mice utilising 27 gauge needles following skin disinfection with 70% ethanol.
Tumours were measured three times a week and tumour volumes estimated using the formula 0.5 (L×W^2) by measuring the tumour in two dimensions using electronic callipers for the duration of the study.
Mice were randomly allocated to four treatment groups and treatment commenced when tumours reached a mean volume of ˜50-100 mm^3. Mice were allocated to their treatment groups with uniform mean tumour volume between groups. Treatment was continued for up to 3 weeks, or until individual mice were sacrificed for humane reasons according to Home Office license regulations (e.g. body weight loss >20%; tumour volume >1500 mm^3; tumour ulceration; loss of clinical condition). The final dose was given on day 32 after implantation.
Vehicle for STM3480—Hydroxypropyl-β-Cyclodextrin (HPBCD)/Sodium Acetate buffer pH:4.6 50 mM (10%/90%; w/v): Weigh 1.025 g of sodium acetate anhydrous. Add 700 μl of glacial acetic acid then make up to 500.0 ml with ultrapurified water. pH:4.6 50 mM.
For 1 ml volume 5 mg/ml STM3480 dosing solution: Weigh 5.0 mg of STM00003480 compound (Batch: EV-WZM001-421-002). Add 1.0 mL of HPBCD/Acetate buffer pH:4.6 50 mM (10%/90%; w/v). Magnetic stirring at high speed at ambient temperature; Overnight stirring may be required if there are any signs of precipitation. The formulation is a slight yellow solution with very few particles in suspension. Homogenize with a vortex before administration. […]

[2] = test system: CT26 mouse colorectal cancer; experiment: Subcutaneous CT26 colorectal cancer syngeneic model, anti-tumour efficacy; assay type: in vivo; settings: 10 per group
Source text: as §1
The objective of this study is to assess the anti-tumour efficacy of STM3480 in combination with anti-PD1 in subcutaneous CT26 mouse colorectal cancer model in female BALB/c mice. CT26.WT (CRL-2638) mouse […] cells were cultured in (RPMI—1640+10% FBS+2 mM L-Glutamine) media. […]
Tumours were measured three times a week and tumour volumes estimated using the formula 0.5 (L×W^2) by measuring the tumour in two dimensions using electronic callipers for the duration of the study. […]

MOLM13 AML cell line = experiment: AML cell viability, CellTiter-Glo combination matrix, MOLM13; assay type: cell-based; settings: MOLM13 AML cell line
Experimental: The sensitivity of AML cell lines to combinations of METTL3 inhibitor and standards of care was determined as described. Dose response curves of venetoclax were determined either alone or in the presence of different concentrations of METTL3 inhibitor that are known to be active in cells.
Synergistic interactions occur when the IC50 value decreases in the presence of METTL3 inhibitor. […] Antagonistic interactions occur when the IC50 value increases in the presence of METTL3 inhibitor.
(§2) 24 h before cell treatment, homogenize, stain with Trypan blue and count viable cells using CellOMeter Auto T4. Dilute cells in media at 400 000 cells/ml to ensure an exponential growth the day after.
(§3) On treatment day, homogenize, stain with Trypan blue and count viable cells using CellOMeter Auto T4. Dilute to the proper cell seeding density according to Table 6 in cell media.
(§4) • Dispense drug (see Table 7) and METTL3 inhibitor in semi-log dose-response matrix and DMSO in 384-well plates using D300e Nanodispenser (Tecan). • 6× compound solution preparation: add 40 μL of cell medium in compound-containing plates and homogenize using the ViaFlo device (Integra) • Dispense 30 μl of cell suspension per well in three replicate 384-well white Ultra-Low-Attachment plates (Sbio) using ViaFlow device (Integra) • Transfer 6 μL of the 6× compound solution in each 30 μL cell suspension-containing plate. • Incubate at 37° C. 5% CO2 for 3 to 5 days.
(§5) • Add 35 μL CellTiter-Glo (Promega) in wells (vol/vol) using ViaFlo device (Integra). • Incubate at RT 10 min in the dark, with agitation the first minute, and read luminescence on the Ensight device (Perkin Elmer).
Raw data were converted to % viability by normalization to DMSO controls. IC50 determination was performed using GraphPad Prism and fitting curves to the standard nonlinear regression four parameter equation (Y=Bottom+(Top-Bottom)/(1+(IC50/X)^HillSlope)) least squares method, and synergy was assessed by comparison of IC50 values of the standard of care in the presence or absence of different concentrations of METTL3 inhibitor (see FIGS. 12 to 19).

[3] = test system: FLT3-mutant MOLM-14 AML cell line; experiment: AML cell viability, CellTiter-Glo combination matrix, MOLM-14; assay type: cell-based
Experimental: as §2, §3, §4, §5
Raw data were converted to % viability by normalization to DMSO controls.

## O=C(NCc1ccc2cc(CNCC3CCC3)[nH]c2c1)c1cc(=O)n2ccccc2n1 [STM3480, N-[(2-{[(cyclobutylmethyl)amino]methyl}-1H-indol-6-yl)methyl]-4-oxo-4H-pyrido[1,2-a]pyrimidine-2-carboxamide]
[1]; A20, FIG. 3
  tumour growth compared to the vehicle control (mean tumour volume): reduction of tumour growth
[1]; A20, female BALB/c mice, STM3480 50 mg/kg p.o., anti PD1 10 mg/kg i.p. BIW, up to 3 weeks, 10 per group
  Mean tumour volume d24: 425 mm3
[1]; A20, individual tumours (FIG. 4)
  progressive tumour growth, animals: 8/10
[1]; A20, STM3480 50 mg/kg p.o., anti PD1 10 mg/kg i.p. BIW, 10 per group
  No. mice with complete regressions: 1
[2]; CT26, female BALB/c mice, STM3480 50 mg/kg p.o., anti PD1 10 mg/kg i.p. BIW, up to 3 weeks
  Mean tumour volume d28: 768 mm3
[2]; CT26
  No. mice with regressions: 0
MOLM13 AML cell line
  interaction with venetoclax: synergistic
[3]; FLT3-mutant MOLM-14 AML cell line
  interaction with quizartinib: additive
[3]; MOLM-14, combination with quizartinib
  cell viability with increasing concentrations of METTL3 inhibitor: decreasing viability
